These results are taken from publication PMC11200626, “In Vitro Biological Activities of Hesperidin-Related Compounds with Different Solubility” (Antioxidants, 2024).

Structures are written as SMILES. Values after ≈ are worked out from the molar mass of the structure shown. Read-outs that look alike come from different tables or passages of the source.

Data set [1] can be described thus: β-carotene bleaching assay. The conditions noted are these: for IC50: β-carotene/linoleic acid emulsion, 50 °C, 2 h. As to the method: Measurements of the inhibition activity of β-carotene oxidation were performed using the method described by Wanasundara et al. and Hidalgo et al. with slight modifications. Briefly, a mixture of β-carotene and linoleic acid was prepared by dissolving 0.2 mg of β-carotene in 1 mL of chloroform and mixing this solution with 200 mg of Tween 20 containing 20 mg of linoleic acid. After removing the chloroform from the mixture in a rotary evaporator at 50 °C, 100 mL of deionized water was added to prepare an emulsion. The diluted sample (100 μL) was mixed with 900 μL of the prepared emulsion and the absorbance was measured immediately at 470 nm. Then, after a reaction at 50 °C for 2 h, the absorbance was measured again at 470 nm. Antioxidant activity was evaluated as a percent of oxidation inhibition compared to the untreated group sample. As a positive control, BHT (butylated hydroxytoluene) was used in the experiment. β−Carotene bleaching inhibition activity%=A0−At−(B0−Bt)/A0−At×100 where A0 is the initial absorbance without a sample, At is the final absorbance without a sample, B0 is the initial absorbance with a sample, and Bt is the final absorbance with a sample.

For the next data set, the system named is HaCaT cells. The experiment in a line: MTT cell viability / cytotoxicity assay. The conditions noted are these: 24 h, tested 12.5–200 μM. As to the method:
The keratinocyte HaCaT cell line was obtained from AddexBio (SanDiego, CA, USA). The cells were maintained in DMEM supplemented with 10% FBS and 1% of penicillin/streptomycin under a humidified atmosphere condition of 5% CO2 at 37 °C. The cytotoxicity of HD and the related compounds was assessed by MTT assay. Cells were seeded in 96-well plates at a density of 2 × 10^4 cells/well and incubated for 24 h at 37 °C. Each sample of HTL, HT, HD, and HDG was dissolved in DMSO as a stock solution (0.1 M). […] After incubation for 24 h, the culture medium was removed and MTT solution (100 μL) was added to the well. The mixture was kept at 37 °C for 2 h, then DMSO was added to the reaction mixture and the absorbance at 540 nm was measured in a microplate reader (Epoch2, Bio Tek, Winooski, VT, USA). Cell viability was calculated as a percentage of difference in absorbance between control and test samples.

For a further data set, the system named is Cutibacterium acnes. The experiment in a line: MIC, broth micro-dilution with resazurin. In kind it is cell-based, Cutibacterium acnes (KCTC 25526). The conditions noted are these: RCM medium, anaerobic, 35 °C, tested up to 4000 μg/mL. As to the method: (§1) Antimicrobial capacity was evaluated against some bacteria and yeast known to be major skin resident microorganisms. Staphylococcus aureus (KCCM 11335) was cultivated on TS agar, and Cutibacterium acnes (KCTC 25526) was cultivated on RCM agar in an anaerobic jar (Rec. Jar, Mitsubishi Gas Chemical Co., Tokyo, Japan) with anaerobic gas packs. Candida albicans (KCCM 50235) was cultivated on YM agar, and Malassezia furfur (KCTC 7545) was cultivated on MLN agar. All the microbes were cultivated at 35 °C.
(§2) For the determination of MIC, S. aureus was cultivated in TS broth, and C. acnes was cultivated in RCM medium in an anaerobic jar with gentle shaking. C. albicans was cultivated in an RPMI-1640 medium supplemented with L-glutamine, and M. furfur was cultivated in an RPMI medium supplemented with 2% oleic acid, 0.5% glycerol, 0.5% Tween 60, and 0.2% sodium bicarbonate. All the microbes were cultivated at 35 °C, and the inoculum size for MICs was 5 × 10^5 cells/mL for S. aureus, and 1.5 × 10^5 cells/mL for C. acnes, C. albicans, and M. furfur, respectively.
(§3) MIC values were determined by the broth micro-dilution method with some modifications. Briefly, the culture broth of each microorganism was diluted with the same medium. […] The MIC value for a microorganism was determined as the lowest concentration of the tested compound that prevented the color change of resazurin (blue to pink).
On the technique in general: Dilution methods test growth across graded concentrations, often in twofold steps.

The test system of a further data set is Candida albicans. The experiment in a line: MIC, broth micro-dilution with resazurin. The conditions noted are these: read-out: MIC Value. The class given is cell-based, Candida albicans (KCCM 50235). As to the method: as §1, §2
MIC values were determined by the broth micro-dilution method with some modifications. Briefly, the culture broth of each microorganism was diluted with the same medium. Two-fold serial dilutions of HTL, HT, HD, and HDG ranging from 4000 to 62.5 μg/mL (depending on the microorganism tested) were performed in 96 well plates. After incubation for sufficient growth, the resazurin solution (1 mg/mL, 10 µL) was added to each well and the plate was incubated for 2 h. The MIC value for a microorganism was determined as the lowest concentration of the tested compound that prevented the color change of resazurin (blue to pink).

Data set [2] can be described thus: DPPH radical scavenging assay. To be noted: for IC50: 0.2 mM DPPH in ethanol, 37 °C, 30 min, read-out: IC50 representing 50% of DPPH radical scavenging. As to the method:
Measurements of DPPH radical scavenging activity were performed based on the method described by Ratha et al. and Blois, with slight modifications. Briefly, DPPH was dissolved in absolute ethanol to 0.2 mM, and 20 μL of the diluted sample was added to 180 μL of the DPPH solution. The reaction was performed at 37 °C for 30 min to stabilize the color, and the absorbance of the reaction solution was measured at 520 nm using a microplate reader (Epoch2, Bio Tek, Winooski, VT, USA). The DPPH radical scavenging activity was calculated using the following formula. Ascorbic acid was used as a positive control. DPPH radical scavenging activity%=A−B/A×100 where A is the absorbance of the reaction solution without a sample, and B is the absorbance of the reaction solution with a sample.

The nature of data set [3]: n-octanol–water partition coefficient. The class given is physicochemical. To be noted: 500 μM sample, 20 h at 20 °C, HPLC, mean ± SD (n = 3); for logP at 20 h: n-octanol/water, read-out: Log Po/w (n-octanol–water partition coefficient) (converted). As to the method:
The hydrophobic/hydrophilic properties were investigated by measuring octanol–water partition coefficients. Octanol–water partition coefficients of the four hesperidin-related compounds were determined by the method described in the previous study. Briefly, samples (500 μM) were mixed in deionized water with an equal volume of n-octanol, and then the mixture was kept for 20 h at 20 °C in the dark to reach partition equilibrium. The concentration of each sample was determined by HPLC, and the partition coefficient (log P) was calculated as the ratio of the concentration in the n-octanol phase to the concentration in the water phase. Partition coefficient LogP=LogCoctanol/[C]water where [C]n-octanol is the concentration of a compound in the n-octanol phase, and [C]water is the concentration of a compound in the water phase.

A short description of data set [4]: Water solubility (in words). The class given is physicochemical.
A further data set concerns Staphylococcus aureus. The experiment in a line: MIC, broth micro-dilution with resazurin. In kind it is cell-based, Staphylococcus aureus (KCCM 11335). To be noted: TS broth, 35 °C, tested up to 4000 μg/mL. The procedure:
as §1, §2, §3

For data set [5], the system named is nitric oxide (NO) in HaCaT cells. The experiment in a line: Cellular NO levels after UV irradiation. In kind it is cell-based. The conditions noted are these: UV 10 mJ/cm^2, 24 h; for NO production (in words): at 25 μM; for NO levels (in words): tested up to 50 μM. The procedure:
Cellular NO levels were determined as an inflammatory intermediate in HaCaT cells. […] Then, cells with or without samples were irradiate with 10 mJ/cm^2 of UV rays at 302 nm using a UV irradiator (UV Crosslinker CL-1000M, UVP, Upland, CA, USA). […] After 24 h incubation, the NO content in the media was measured using an NO assay kit according to the manufacturer’s experimental protocol. The absorbance was measured at 540 nm in the same microplate reader as above.

For the next data set, the system named is TNF-α in HaCaT cells. The experiment in a line: Cellular TNF-α levels after UV irradiation (ELISA). The class given is cell-based, Human. To be noted: UV 10 mJ/cm^2, 24 h, tested concentrations up to 25 μM. As to the method: (§4) Cellular levels of TNF-α and IL-6 were measured in HaCaT cells after the addition of various concentrations of HTL, HT, HD, and HDG under UV irradiation. The cell culture and sample treatment conditions for the TNF-α and IL-6 assay were the same as those used in the NO assay. The TNF-α and IL-6 contents in the media were measured, respectively, using commercial detection kits according to the manufacturer’s protocols. The absorbance was measured at 450 nm in the same microplate reader as above.
In general terms: ELISA stands for enzyme-linked immunosorbent assay.

The next data set concerns Malassezia furfur. The experiment in a line: MIC, broth micro-dilution with resazurin. The class given is cell-based, Malassezia furfur (KCTC 7545). The conditions noted are these: supplemented RPMI, 35 °C, tested up to 4000 μg/mL. The procedure: as §1, §2, §3
Another data set deals with IL-6 in HaCaT cells. The experiment in a line: Cellular IL-6 levels after UV irradiation (ELISA). In kind it is cell-based, Human. To be noted: UV 10 mJ/cm^2, 24 h, tested concentrations up to 25 μM. The procedure:
as §4

The mark [6] stands for this setting: RPMI-1640, 35 °C, tested up to 4000 μg/mL.

As to `Cc1cc(C(C)(C)C)c(O)c(C(C)(C)C)c1` [BHT, butylated hydroxytoluene, reference compound], the “β-carotene bleaching inhibitory activity” value in data set [1] (at a concentration of 25 μM, positive control) came to 47.08%.
Usually IC50 stands for the concentration that inhibits the measured activity by half. Broadly, the MIC is the lowest concentration that inhibits growth of the organism. Regarding `COc1ccc([C@@H]2CC(=O)c3c(O)cc(O)cc3O2)cc1O` [HT, hesperetin], the “concentration showing cytotoxic effects / cell death” value in the data set on HaCaT cells was 100~200 μM. The values for the IC50 in data set [1] and in data set [2] were 110 ± 3.74 µM and 893.1 ± 1.67 µM, respectively. Moreover, the minimum inhibitory concentration (MIC) is 1000 µg/mL (≈ 3310 µM) against Cutibacterium acnes, 500 µg/mL (≈ 1650 µM) with Candida albicans (setting [6]) and 2000 µg/mL (≈ 6620 µM) against Staphylococcus aureus. For the same compound, the logP at 20 h in data set [3] is 2.59. Besides, the “water solubility (in words)” value in data set [4] is “hardly soluble in water”. In addition, the “NO production (in words)” value in data set [5] is “markedly decreased”.
In the case of `O=C1O[C@H]([C@@H](O)CO)C(O)=C1O` [Ascorbic acid, reference compound], the “DPPH radical scavenging activity” value in data set [2] (at a concentration of 50 μM, positive control) came to 48.74%.
For `CCCCCCCCCCCC(=O)Oc1cc(O)c2c(c1)OC(c1ccc(OC)c(O)c1)CC2=O` (stereo not shown) [HTL, hesperetin laurate], the “effect on TNF-α production (in words)” value in the data set with TNF-α in HaCaT cells is given as “highest reducing effect”. Moreover, in the data set with HaCaT cells, the “cytotoxicity (in words)” value is recorded as “induced cell death at relatively low concentrations”. The IC50 in [1] worked out at 105 ± 2.01 µM; in [2] it was 899.1 ± 2.52 µM. Further, the MIC is 1000 µg/mL (≈ 2060 µM) in the data set on Malassezia furfur, 1000 µg/mL (≈ 2060 µM) against Cutibacterium acnes, 250 µg/mL (≈ 516 µM) with Candida albicans (setting [6]) and 2000 µg/mL (≈ 4130 µM) in the data set with Staphylococcus aureus. The “effect on IL-6 production (in words)” value in the data set with IL-6 in HaCaT cells is “highest reducing effect”. In addition, the “Log Po/w (n-octanol–water partition coefficient)” value in data set [3] was 7.08 ± 0.06. Further, the logP at 20 h in [3] was 7.28 ± 0.06. In data set [4], the “water solubility (in words)” value is reported as “extremely insoluble in water”. Further, the “NO production (in words)” value in [5] is recorded as “markedly decreased”.
On to `COc1ccc(C2CC(=O)c3c(O)cc(O[C@@H]4O[C@H](CO[C@@H]5O[C@@H](C)[C@H](O)[C@@H](O)[C@H]5O)[C@@H](O[C@H]5O[C@H](CO)[C@@H](O)[C@H](O)[C@H]5O)[C@H](O)[C@H]4O)cc3O2)cc1O` (stereo partly shown) [HDG, hesperidin glucoside], for which, in the data set with TNF-α in HaCaT cells, the “effect on TNF-α production (in words)” value is “Drastic effects were not observed”. In the data set with HaCaT cells, the “concentration showing cytotoxic effects / cell death” value is above 200 µM and the “cytotoxicity (in words)” value was “much less cytotoxicity than the other compounds”. Besides, the IC50 in [1] was 267 ± 2.69 µM. The MIC in the data set on Candida albicans (setting [6]) was found to be 2000 µg/mL (≈ 2590 µM). The “effect on IL-6 production (in words)” value in the data set with IL-6 in HaCaT cells was “Drastic effects were not observed”. The 50% inhibitory concentration (IC50) in [2] turned out to be 1408 ± 3.73 µM. Moreover, the logP at 20 h in [3] was -3.45. Besides, the “water solubility (in words)” value in data set [4] is “highly soluble in water”. Further, in [5], the “NO levels (in words)” value is “reduced NO levels at higher concentrations”.
Turning to `COc1ccc(C2CC(=O)c3c(O)cc(O[C@@H]4O[C@H](CO[C@@H]5O[C@@H](C)[C@H](O)[C@@H](O)[C@H]5O)[C@@H](O)[C@H](O)[C@H]4O)cc3O2)cc1O` (stereo partly shown) [HD, hesperetin 7-rutinoside], in the data set with TNF-α in HaCaT cells, the “effect on TNF-α production (in words)” value is “Drastic effects were not observed”. Also, the “concentration showing cytotoxic effects / cell death” value in the data set on HaCaT cells is listed as 100~200 μM. Further, the IC50 in [1] came to 260.8 ± 2.55 µM; in [2] it was 1409 ± 3.43 µM. In addition, in the data set with Candida albicans, the minimal inhibitory concentration (MIC) is 2000 µg/mL (≈ 3280 µM). The “effect on IL-6 production (in words)” value with IL-6 in HaCaT cells is listed as “Drastic effects were not observed”. Also, the logP at 20 h in [3] is 2.13 ± 0.03. The “water solubility (in words)” value in data set [4] is “poorly soluble in water”. For the same compound, the “NO levels (in words)” value in data set [5] is “reduced NO levels at higher concentrations”.
